molecular target: Delta-type opioid receptor (Homo sapiens, UniProt P41143); assay: Displacement of [125I]deltorphin 2 from human recombinant delta opioid receptor expressed in HEK cell membranes; set-up: species or system HEK293
Sequence (P41143 whole entry): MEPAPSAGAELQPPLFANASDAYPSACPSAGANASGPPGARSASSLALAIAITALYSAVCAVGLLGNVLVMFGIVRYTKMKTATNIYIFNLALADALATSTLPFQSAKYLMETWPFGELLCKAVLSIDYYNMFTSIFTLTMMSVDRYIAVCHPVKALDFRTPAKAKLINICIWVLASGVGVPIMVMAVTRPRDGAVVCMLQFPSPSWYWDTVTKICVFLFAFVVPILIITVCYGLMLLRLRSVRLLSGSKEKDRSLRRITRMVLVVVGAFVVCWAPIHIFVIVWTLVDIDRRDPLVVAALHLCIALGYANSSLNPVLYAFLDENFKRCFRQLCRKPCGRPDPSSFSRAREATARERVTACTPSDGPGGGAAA

| IC50 | SMILES |
| --- | --- |
| 86.4 µM | Cc1cccc2c1C(=O)C1[C@H]3CCCN3CC[C@H]1O2 (some centres undefined) [ELAEOCARPINE] |
| 35.1 µM | Cc1cccc(O)c1C(=O)[C@@H]1[C@H]2CCCN2CC[C@@H]1O [ISOELAEOCARPICINE] |
| 13.6 µM | Cc1cccc2c1C(=O)[C@H]1[C@H](CCN3CCC[C@H]13)O2 [ISOELAEOCARPINE] |

| SMILES | IC50 |
| --- | --- |
| Cc1cccc(O)c1C(=O)C1=CCCN2CCC[C@H]12 [ELAEOCARPENINE] | 2.74 µM |

Source: ChEMBL document CHEMBL1139879, “Indolizidine alkaloids with delta-opioid receptor binding affinity from the leaves of Elaeocarpus fuscoides” (J Nat Prod, 2007)
